Test results published in PubChem BioAssay AID463074 (Broad Institute, 2010).
“And” between values parts separate entries of the source, which are not always exact repeats. Identical values can stand only once. The source made the active and inactive calls.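 Rule for the calls: active = AC50 no more than tenfold above the top dose tested, or full inhibition at every dose with a flat fit (cut at about 19 µM in these data); inconclusive = flat curve fit with inhibition between 30% and 70%, or poor fit; inactive = AC50 more than tenfold above the top dose tested.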

System: HMLE_sh_eGFP viability, CellTiter-Glo luminescence, 72 h
Test: cytotoxicity in HMLE control line with eGFP shRNA, dose response, counter-screen for HMLE_sh_ECad selective toxicity project, cell-based, HMLE_sh_eGFP, luminescence (AID 463074);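 note: counterscreen control line to flag general toxicity for the HMLE_sh_ECad screen; potency for loss of viability as luminescence drops below DMSO wells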

| Compound | AC50 |
| --- | --- |
| COc1ccc(NS(=O)(=O)c2cc(-c3cnc(C4CC4)o3)ccc2C)cc1 | 0.968 µM |
| NC(=O)CC(NC(=O)Cc1cccc2ccccc12)c1ccc(NC2CCCCCCC2)c([N+](=O)[O-])c1 (stereo not given) | 12 µM |
| Cc1ccc(C(=O)N/C(=C\c2ccc(-c3ccc(Br)cc3)o2)C(=O)NCCCN(C)C)cc1 | 4.38 µM |
| COc1ccc(Nc2nc(-c3cccc([N+](=O)[O-])c3)nc3ccccc23)cc1 | 17.8 µM |
| O=C(Nc1nc(-c2cccs2)cs1)c1ccc([N+](=O)[O-])o1 | 3.18 µM |
| COc1cccc(/C=N/NC(=O)c2[nH]c(C)c(C(=O)N/N=C/c3cccc(OC)c3O)c2C)c1O | 4.53 µM |
| CCOC(=O)N1CCN(S(=O)(=O)c2ccc(C(=O)NNc3nc4cc(C)cc(C)c4s3)cc2)CC1 | 3.7 µM |
| CCCSc1nnc(CSc2nc3ccccc3s2)n1-c1ccccc1 | 3.01 µM |
| CC(=O)Nc1ccc(-c2csc(NC(=O)CCCc3cccs3)n2)cc1 | 0.986 µM |
| Cc1cc(-c2ccccc2)nc2cc(C(=O)N(Cc3ccccc3)Cc3ccccc3)nn12 | 10.8 µM |
| Nc1nnc(SCC(=O)OCC(=O)NC2CCCCC2)s1 | > 19.5 µM (inactive) |
| CC(C)C1C(c2ccccc2)N(C)C(c2ccccc2)CC1(O)c1ccccc1 (stereo not given) | 3.35 µM |
| CCCCC[C@@H]1C=C(C(=O)O)[C@H](c2ccc(Cl)c(Cl)c2)N1S(=O)(=O)c1ccc(C)cc1 | 5.05 µM |
| O=C(O)c1cccc(S(=O)(=O)NNc2ccccc2C(F)(F)F)c1 | 11.3 µM |
| O=C(C[n+]1ccccc1)NNc1ccccc1 | 1.78 µM |
| CN1CCN(/N=C/c2ccc(N(c3ccccc3)c3ccccc3)cc2)CC1 | 6.89 µM |
| Cc1ccc2nc(NC(=O)c3cccc(-c4cc5ccccc5oc4=O)c3)sc2c1 | > 19.5 µM (inactive) |
| Cc1ccc(C)c(OCCCCN2CCNCC2)c1C | 6.15 µM |
| CCN1C(=O)C(CC(=O)Nc2ccc(OC)cc2)N(CCCN2CCN(c3ccc(F)cc3)CC2)C1=S (stereo not given) | 7.04 µM |
| O=[N+]([O-])c1ccc(N2N=C(c3ccccc3)CC2c2ccccc2O)cc1 (stereo not given) | 2.51 µM |
| CCOC(=O)N1C(=O)[C@@](c2ccc(Cl)cc2)(C(C)C)N1C(=O)OCC | 7.14 µM |
| COc1ccc(N(C(=O)c2ccccc2C)S(=O)(=O)c2cccs2)cc1 | 0.231 µM |
| COc1cc(/C=C/C(=O)c2ccc3c(c2)OCO3)cc(Cl)c1O | 10.8 µM |
| CCCCc1ccc(NC(=O)CSc2nc(=O)n(CCN(CC)CC)c3c2CCC3)cc1 | 9.97 µM |
| COc1cc(/C=N/Nc2nc(Nc3ccccc3)nc(-n3nc(C)cc3C)n2)cc(OC)c1OC | 3.7 µM |
| CC[C@@H]1Cc2cc(O)ccc2C2=C1c1ccc(O)cc1C[C@H]2CC | 4.15 µM |
| Cc1ccc(S(=O)(=O)Nc2ccc(-c3nnc(SCc4ccccc4Cl)o3)cc2)cc1 | 5.7 µM |

| Compound | AC50 |
| --- | --- |
| O=C(NCCN1CCOCC1)NC1(C(F)(F)F)Oc2ccc(Cl)cc2O1 (stereo not given) | 14 µM |
| CC(Cc1ccccc1)NCCC(c1ccccc1)c1ccccc1 (stereo not given) | 8.73 µM |
| COc1ccc(C)cc1NC(=O)c1ccccc1NS(=O)(=O)c1ccc(Cl)s1 | 7.89 µM |
| Cc1ccc(C(=O)Cn2nnc3c(sc4nc5c(c(-c6ccccc6)c43)CCC5)c2=O)cc1 | 0.687 µM |
| CCCCN(CCCC)CCC(O)c1cc2c(Cl)cc(Cl)cc2c2cc(C(F)(F)F)ccc12 (stereo not given) | 7.54 µM |
| CC(C)Cc1nc2oc3c(Cl)ncnc3c2c2c1CCCC2 | 4.82 µM |
| CC(=O)c1ccc(N2CCC(c3cc(-c4ccc(Cl)cc4)n[nH]3)CC2)c([N+](=O)[O-])c1 | 3.62 µM |
| CC(NC(=O)c1ccc([N+](=O)[O-])o1)C12CC3CC(CC(C3)C1)C2 (stereo not given) | 9.54 µM |
| COc1cccc(C(=O)/C=C/c2ccc(N3CCCCC3)c([N+](=O)[O-])c2)c1 | 6.69 µM |
| Cc1cccc(-c2oc3ccccc3c2C#CCCCCO)c1 | 7.62 µM |
| COc1ccc(OC)c(NC(=O)c2nc(S(=O)(=O)Cc3ccccc3)ncc2Cl)c1 | 6.74 µM |
| Cc1ccnc(Nc2nc(-c3ccc(O)cc3O)cs2)c1 | 14.9 µM |
| COc1ccc(CN2CCC(N(CCc3ccccc3)Cc3ccccc3)CC2)c(OC)c1 | 5.43 µM |
| O=C(Nc1ccc(Nc2ccccc2)cc1)Nc1ccccc1Cl | 3.44 µM |
| Cc1nc2ccc(Br)cn2c1C(=O)N/N=C\c1ccc(C(C)C)cc1 | 4.34 µM |
| CN(/N=C/c1cc(Cl)cc(Cl)c1O)C(=S)NC(C)(C)C | 2.75 µM |
| Oc1ccc(C2=NN(c3ccccc3)C(c3ccc(F)cc3)C2)cc1 (stereo not given) | 3.45 µM |
| COc1ccc(Br)cc1C(C[N+](=O)[O-])c1c(N)n(C)c(=O)n(C)c1=O (stereo not given) | 4.93 µM |
| Cn1nc(-c2ccc(Cl)cc2)c2cc(C(=O)NCCCN3CCOCC3)sc21 | 5.94 µM |
| C=C1/C(=C\C=C2/CCC[C@]3(C)[C@@H]([C@H](C)/C=C/[C@@H](O)C4CC4)CC[C@@H]23)C[C@@H](O)C[C@@H]1O | 6.49 µM |
| Cc1onc(-c2c(Cl)cccc2Cl)c1C(=O)NNc1ccccc1 | 2.09 µM |
| COc1ccc(Nc2nnc(-c3ccccc3)c3ccccc23)cc1C(=O)N1CCCCC1 | > 19.5 µM (inactive) |
| OCCNc1nc(Nc2ccc(Cl)c(Cl)c2)nc2ccccc12 | 6.96 µM |
| Cc1cc(=O)[nH]c(N/N=C/c2ccccn2)n1 | 1.53 µM |
| Cc1ncc(CN2CCCC(C(=O)Nc3ccc(-c4cccc(F)c4)cc3)C2)s1 (stereo not given) | 11.7 µM |
| S=C(Nc1cccc(Cl)c1)N(CCCN1CCCC1)Cc1cccn1Cc1ccc(Cl)cc1 | 6.86 µM |
| Cc1cccc(NC(=O)c2nc[nH]c2C(=O)NC2CCN(C(=O)OC(C)(C)C)CC2)c1 | 6.79 µM |

| Compound | AC50 |
| --- | --- |
| Cc1c(CCOC(=O)CC23CC4CC(CC(C4)C2)C3)sc[n+]1CC(=O)c1ccc(Br)cc1 | 2.6 µM |
| O=c1c2ccccc2nc2n1C1(CCCCC1)Cc1ccccc1-2 | 4.03 µM |
| O=c1c2cc(NC(=S)NCCCN3CCC(Cc4ccccc4)CC3)ccc2nc2n1CCCCC2 | 6.21 µM |
| Oc1ccccc1/C=N/NP(=S)(c1ccccc1)c1ccccc1 | 6.98 µM |
| CCCCCCc1cc2cc(S(=O)(=O)c3ccc(C)cc3)c(=O)oc2cc1O | 2.43 µM |
| N=C(N)SCc1nc2ccccc2c(=O)n1-c1ccccc1Cl | 12.5 µM |
| Cc1ccc(S[C@@H](CCN2CC[C@H](C(C)(C)C)CCC2=O)c2ccccc2)cc1 | 3.57 µM |
| Cc1ccc(S(=O)(=O)Nc2ccc3c(c2)CC(=O)N([C@H](C)CO)C[C@@H](C)[C@H](CN(C)Cc2ccc(-c4ccccc4)cc2)O3)cc1 | 2.29 µM |
| CC/C(=C(\c1ccccc1)c1ccc(OCCN(C)C)cc1)c1ccccc1 | 6.69 µM and 6.32 µM |
| CCN(CC)CCCNC(=O)c1cc2c(Cl)nc3ccccc3c2s1 | 5.16 µM |
| O=C(NC(CSCc1ccccc1)C(=O)N/N=C/c1ccc(O)cc1O)c1ccc([N+](=O)[O-])cc1 (stereo not given) | 2.14 µM |
| COc1cc2ccccc2cc1C(=O)Nc1ccccc1Cl | 7.94 µM |
| O=C(CCc1ccc(Oc2cc([N+](=O)[O-])cc([N+](=O)[O-])c2)cc1)N1CCCCCC1 | 8.85 µM |
| C/C(=N\NC(=S)NC(C)C)c1ccc(C(C)(C)C)cc1 | 10 µM |
| CC(C)(C)c1nc(N2CCN(C(=O)c3ccco3)CC2)c2nnn(Cc3ccccc3Cl)c2n1 | 8.78 µM |
| O=C(CSc1nc2nc(-c3cccs3)cc(C(F)(F)F)c2c(=O)[nH]1)Nc1ccc(F)c(F)c1 | 2.56 µM |
| Cc1sc(NC(=O)C2CCCCC2)c(C#N)c1-c1ccccc1 | > 19.5 µM (inactive) |
| COc1cc(/C=N/N(c2ccccc2)c2ccccc2)ccc1O | 6.34 µM |
| CCN(CC)c1ccc(/C=N/NC(=O)CCC(=O)NCc2ccccc2)c(O)c1 | 8.23 µM |
| c1ccc(CN2CCC(Nc3nc(-c4cccs4)nc4ccccc34)CC2)cc1 | 6.8 µM |
| Cc1nc(Nc2nc(CSc3nc4ccccc4[nH]3)cc(=O)[nH]2)nc2ccccc12 | 2.69 µM |
| Cc1ccc(S(=O)(=O)N2[C@@H](c3ccc(C(C)(C)C)cc3)C(C(=O)O)=CC[C@H]2c2cccc(Cl)c2)cc1 | 4.26 µM |
| CC(C)C[C@@H](CO)N(Cc1ccccc1)S(=O)(=O)N(Cc1ccccc1)[C@@H](CO)CC(C)C | 3.87 µM |
| Cn1cncc1C#Cc1c(-c2ccsc2)sc2ccccc12 | 7.26 µM |
| CCCCCc1ccc(OCCCC[n+]2cccc(C)c2)c(CCCCC)c1 | 7.42 µM |
| COc1cc(OC)cc(-c2sc3ccc(OC)cc3c2C#CC2(N)CCCCC2)c1 | 3.23 µM |
| CCOC(=O)c1c(C)[nH]c(C(=O)N/N=C\c2ccccc2O)c1C | 8.76 µM |

| Compound | AC50 |
| --- | --- |
| CC(C)(C)c1cc(C(=O)NNc2cccc(Cl)c2)n(Cc2ccccc2)n1 | 2.07 µM |
| COc1ccc(/C=N/N(c2ccccc2)c2ccccc2)cc1O | 7.09 µM |
| O=C(O)c1ccc(Cl)c(S(=O)(=O)N(Cc2ccccc2)c2ccc(F)cc2)c1 | 14.5 µM |
| Cc1cc2c(cc1C)C(c1ccccc1OC(C)C)CC(=O)N2 (stereo not given) | 1.54 µM |
| O=C(Cn1ncc(Cl)c(Cl)c1=O)NC(=O)NC1CCCCC1 | 2.23 µM |
| CCNC(=O)c1c(NC(=O)c2cc(-c3cc(C)ccc3O)n[nH]2)sc2c1CCCC2 | 4.99 µM |
| O=C(O)c1cccc(N/N=C(\N=Nc2ccccc2)c2ccccc2)c1 | 4.25 µM |
| COc1ccc(C)cc1N1C(=N)/C(=C2/Nc3ccccc3S2)C(c2ccccc2)C1=O (stereo not given) | 17.8 µM |
| CC(c1ccccc1)N1C(=O)/C(=C/c2ccncc2)SC1=S (stereo not given) | 17.2 µM |
| Cc1cc(Nc2cccc(Cl)c2)nc(NCc2ccccc2)n1 | 3.73 µM |
| COc1ccc(OC)c(-c2csc(N(CC3CCCO3)C(=O)C3CCCCC3)n2)c1 (stereo not given) | 7.05 µM |
| O=C(Nc1ccc(Cl)c(Cl)c1)Nc1ccccc1O | 12.4 µM |
| CCN(CC)c1ccc(C(=O)OCc2cc(=O)oc3cc(O)ccc23)cc1 | 16.2 µM |
| Fc1ccc(C(OCCN2CCN(CCCc3ccccc3)CC2)c2ccc(F)cc2)cc1 | 3.12 µM |
| Oc1ccc(-c2cc(-c3ccc(O)cc3)nc(-c3ccccc3)n2)cc1 | 3.77 µM |
| Cc1cc([N+](=O)[O-])ccc1-c1ccc(/C=N/NC(=O)c2ccc(Br)o2)o1 | 3.49 µM |
| CC(C)COC(=O)c1cccc2c1-c1ccccc1/C2=N\O | 5.27 µM |
| CC(C)=CCC/C(C)=C/Cc1c(O)ccc(C(=O)/C=C/c2ccc(O)cc2)c1O | 6.42 µM |
| COc1cc(OC)cc(-c2sc3ccc(OC)cc3c2-c2ccc(O)cc2)c1 | 3.41 µM |
| Cc1cccc(-c2cc3nc(C)cc(N4CC(C)CC(C)C4)n3n2)c1 (stereo not given) | 6.87 µM |
| Cc1ccn2c(NC3CCCCC3)c(-c3cccc(SC4CCCCC4)c3)nc2c1 | 3.86 µM |
| CC(C)OCCCNC(=O)c1c(N)n(Cc2cccs2)c2nc3ccccc3nc12 | 4.3 µM |
| Cc1ccc(NC(=S)N/N=C/c2c(Cl)cccc2Cl)c(C)c1 | 0.369 µM |
| COC(=O)c1c(NC(=O)Cc2cccs2)sc2c1CCC(C)C2 (stereo not given) | 9.75 µM |
